# Experimental data as given in US9598441B2, “Therapeutic compounds and methods” (Wayne State University, priority 2011, dated 2017).
# Molecular target: T1, CARP-1 binding with APC-2 (Homo sapiens, UniProt Q8IX12)
# T1 construct: made in house; host or cells: E. coli BL-21 (DE3)
# T1 sequence (Q8IX12 951-980 limits assumed): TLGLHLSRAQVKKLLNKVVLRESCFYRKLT
# Assay: Fluorescence polarization assay (FPA) for inhibitors of CARP-1-APC-2 binding
# Settings: fluorescein-tagged A-epitope peptide and Gst-APC-2 (685-754)
# Experimental: Although, several formats for FP are indicated in the published literature (Inglese, J., Johnson, R. L., Simeonov, A., Xia, M., Zheng, W., Austin, C. P., Auld, D. S. (2007) Nat. Chem. Biol. 3(8), 466-79), the assays using 96-well or higher density plates are often and routinely employed. Optimization of FP for HTS involves several steps including the determination of Kd values, optimization of the buffer conditions, incubation and measurement times, and determination of the DMSO tolerance of the assay. Our goal was to minimize variation and to aim for adequate signal:background without adversely effecting the sensitivity of the assay. The FP polarization values in milli-polarization (mp) were measured to determine changes in the mp (Amp=mp of bound peptide mp of free peptide), the Kd and Ki constants of the binding. A 30-mer CARP-1 peptide that contained APC-2-binding epitope (A-epitope peptide) was commercially synthesized (US Biologicals, MA), labeled with fluorescein at the N-terminus, and purified to >98% purity. Increasing concentrations of A-epitope peptide were incubated with the indicated quantities of the affinity-purified Gst-APC-2 (685-754) protein in assay buffer containing 0.01% triton-X100. Affinity-purified Gst-NEMO (221-317) was included as a negative control. The Δmp was measured by excitation at 485 nm and emission at 538 nm.
# The kinetics of CARP-1 binding with APC-2 was determined, and whether this binding could be exploited to identify SMIs of CARP-1-APC-2 interaction was investigated. For this purpose, a FPA utilizing the affinity-purified Gst-APC-2 (685-754) protein and the fluorescein-tagged A-epitope peptide was developed as detailed in methods. […] The signal to background ratio of 6 underscored robustness of this assay. Since, the quality (precision) and suitability of the FPA for HTS is usually defined by the Z′ factor (25, 40), we utilized the positive and negative control mean signals (μc+ and μc−, respectively) and their standard deviations (σc+ and σc−) to calculate the Z′ factor using the equation Z′=1−[3(σc++σc−)/(μc+−μc−)]. […]
row,Structure (SMILES),IC50
1,"O=C1N(Cc2ccccc2Cl)c2ccccc2C12NN=C(c1ccccc1)S2 (centres unmarked) [CFM-4, 1-(2-chlorobenzyl)-5′-phenyl-3′H-spiro[indoline-3,2′-[1,3,4]thiadiazol]-2-one]",0.75 µM
2,"Cc1cc(Br)cc2c1NC(=O)/C2=C1\SC(=S)NC1=O [CFM-1, (Z)-5-(5-bromo-7-methyl-2-oxoindolin-3-ylidene)-2-thioxothiazolidin-4-one]",4.1 µM
